Our source for the IC50 values is ChEMBL document CHEMBL3632597, “Synthesis and biological evaluation of 5-(fluoro-substituted-6-methylpyridin-2-yl)-4-([1,2,4]triazolo[1,5-a]pyridin-6-yl)imidazoles as inhibitors of transforming growth factor-β type I receptor kinase” (Bioorg Med Chem Lett, 2015).

As usually defined, the IC50 is the concentration at which inhibition is half-maximal.

Assay [1] deals with T1, TGF-beta receptor type-1 (Homo sapiens, UniProt P36897).
T1 sequence (P36897 whole entry): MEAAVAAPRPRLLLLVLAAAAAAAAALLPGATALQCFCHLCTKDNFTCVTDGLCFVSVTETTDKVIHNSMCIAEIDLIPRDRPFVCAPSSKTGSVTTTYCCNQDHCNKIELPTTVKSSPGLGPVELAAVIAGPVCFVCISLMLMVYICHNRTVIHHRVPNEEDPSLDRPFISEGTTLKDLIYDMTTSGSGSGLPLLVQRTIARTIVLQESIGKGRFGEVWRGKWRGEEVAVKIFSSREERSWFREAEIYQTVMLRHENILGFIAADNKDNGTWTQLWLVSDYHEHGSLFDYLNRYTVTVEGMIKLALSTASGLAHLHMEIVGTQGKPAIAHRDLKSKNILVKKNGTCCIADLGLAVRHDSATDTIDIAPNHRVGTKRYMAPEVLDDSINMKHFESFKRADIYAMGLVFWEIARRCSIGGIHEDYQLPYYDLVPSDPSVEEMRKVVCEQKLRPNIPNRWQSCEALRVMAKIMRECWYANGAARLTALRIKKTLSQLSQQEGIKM
As to the kind of experiment: Inhibition of human recombinant GST-fused ALK5 expressed in Sf9 insect cells using casein as substrate by proprietary radioisotopic protein kinase assay.

Assay [2] concerns the target Mitogen-activated protein kinase 14 (Homo sapiens, UniProt Q16539). Put plainly: Inhibition of human recombinant p38alpha expressed in Escherichia coli using ATF2 as substrate by proprietary radioisotopic protein kinase assay.

Chain of Mitogen-activated protein kinase 14 (Q16539 whole entry): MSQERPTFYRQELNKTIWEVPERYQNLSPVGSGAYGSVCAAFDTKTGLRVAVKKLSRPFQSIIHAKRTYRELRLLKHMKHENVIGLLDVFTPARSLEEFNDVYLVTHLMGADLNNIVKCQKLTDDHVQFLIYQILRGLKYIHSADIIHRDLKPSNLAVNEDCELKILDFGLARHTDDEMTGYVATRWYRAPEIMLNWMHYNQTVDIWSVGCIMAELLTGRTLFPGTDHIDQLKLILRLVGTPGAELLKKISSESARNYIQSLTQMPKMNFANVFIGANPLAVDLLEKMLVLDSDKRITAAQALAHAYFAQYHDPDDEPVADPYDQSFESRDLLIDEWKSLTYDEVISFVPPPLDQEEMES

In the case of `Cc1ccc(F)c(-c2[nH]c(CNc3cccc(C(N)=O)c3)nc2-c2ccc3ncnn3c2)n1`, the figures for the IC50 in assay [1] and in assay [2] were 11 nM and 251 nM, respectively. In the same order, the values of `Cc1cc(F)cc(-c2[nH]c(CNc3ccccc3)nc2-c2ccc3ncnn3c2)n1` are 72.5 nM and more than 10000 nM. In the same order, the values of `Cc1nc(-c2[nH]c(CNc3ccccc3F)nc2-c2ccc3ncnn3c2)ccc1F` are 12.5 nM and 3370 nM.

Turning to `Cc1ccc(F)c(-c2[nH]c(CNc3ccccc3)nc2-c2ccc3ncnn3c2)n1`, the IC50 in assay [1] came to 9.76 nM; in assay [2] it was 399 nM. In the same order, the values of `Cc1nc(-c2[nH]c(CNc3ccccc3)nc2-c2ccc3ncnn3c2)ccc1F` are 9.23 nM and 2040 nM. In the same order, the values of `C=Cc1cccc(NCc2nc(-c3ccc4ncnn4c3)c(-c3ccc(F)c(C)n3)[nH]2)c1` are 13.7 nM and 1810 nM. As for `Cc1ccc(F)c(-c2[nH]c(CNc3ccccc3F)nc2-c2ccc3ncnn3c2)n1`, the results for the IC50 in assay [1] and in assay [2] were 12.1 nM and 766 nM, respectively. As to `C=Cc1cccc(NCc2nc(-c3ccc4ncnn4c3)c(-c3nc(C)ccc3F)[nH]2)c1`, the IC50 in assay [1] amounted to 9.81 nM; in assay [2] it was 171 nM. In the case of `Cc1nc(-c2[nH]c(CNc3cccc(C(N)=O)c3)nc2-c2ccc3ncnn3c2)ccc1F`, the values for the half-inhibitory concentration (IC50) in assay [1] and in assay [2] were 10.8 nM and 1480 nM, respectively. As for `Cc1cc(F)cc(-c2[nH]c(CNc3ccccc3F)nc2-c2ccc3ncnn3c2)n1`, the IC50 in assay [1] is 41.9 nM; in assay [2], more than 10000 nM. The matching figures for `Cc1ccc(F)c(-c2[nH]c(CNc3cccc(C#N)c3)nc2-c2ccc3ncnn3c2)n1`: 9.23 nM and 209 nM. For `Cc1cccc(-c2nn3c(c2-c2ccnc4ccc(C(N)=O)cc24)CCC3)n1` [GALUNISERTIB], the IC50 in assay [2] is 405 nM. Consider `Cc1nc(-c2[nH]c(CNc3cccc(C#N)c3)nc2-c2ccc3ncnn3c2)ccc1F`, for which the values for the IC50 in assay [1] and in assay [2] were 7.68 nM and 1240 nM, respectively.
